Test results reported in PMC8482274, “Inadequate Cerebrospinal Fluid Concentrations of Available Salvage Agents Further Impedes the Optimal Treatment of Multidrug-Resistant Enterococcus faecium Meningitis and Bacteremia” (Infectious Disease Reports, 2021).
Where two headings read alike, the source gives them in different places.

Tested on: VREf isolates
Experiment: microbe, parasite or virus in culture
Description: Initial organism identification and susceptibility determination were performed via MALDI-TOF MS (Bruker Daltonics, Billerica, MA, USA) and MicroScan Walkaway (Beckman Coulter, Brea, CA), respectively, in the clinical microbiology laboratory. Pure colonies of the VREf isolates cultured from the CSF on hospital days 33 and 57 and from blood on days 35 and 52 were sub-cultured to BD BBL chocolate II agar slants (Becton, Dickinson and Company, Sparks, MD, USA) and shipped immediately overnight to the research laboratory where all subsequent testing was performed. Identification and resistance marker detection was confirmed via the Verigene Gram-positive blood culture assay (Luminex, Northbrook, IL, USA).
Minimum inhibitory concentrations were determined in triplicate according to CLSI guidelines. Modal MIC values are reported.

[1] = Enterococcus faecium, VREf isolate from CSF, hospital day 33, modal MIC of triplicate, CLSI guidelines
[2] = Enterococcus faecium, VREf isolate from CSF, hospital day 57, modal MIC of triplicate, CLSI guidelines
[3] = Enterococcus faecium, VREf isolate from blood, hospital day 35, modal MIC of triplicate, CLSI guidelines
[4] = Enterococcus faecium, VREf isolate from blood, hospital day 52, modal MIC of triplicate, CLSI guidelines
[5] = VREf isolate from CSF, hospital day 33, CLSI M100-S30 unless footnoted (b: CLSI vancomycin-susceptible E. faecalis; c: FDA E. faecalis; d: EUCAST v.10.0 E. faecium)
[6] = VREf isolate from CSF, hospital day 57, CLSI M100-S30 unless footnoted
[7] = VREf isolate from blood, hospital day 35, CLSI M100-S30 unless footnoted
[8] = VREf isolate from blood, hospital day 52, CLSI M100-S30 unless footnoted

Structure (SMILES) | MIC [1] | MIC [2] | MIC [3] | MIC [4] | MIC | Interpretive Category [5] | Interpretive Category [6] | Interpretive Category [7] | Interpretive Category [8]
CC1(C)S[C@@H]2[C@H](NC(=O)[C@H](N)c3ccccc3)C(=O)N2[C@H]1C(=O)O [Ampicillin] | ≥ 16 µg/mL | ≥ 16 µg/mL | ≥ 16 µg/mL | ≥ 16 µg/mL |  | R | R | R | R
CCO/N=C(\C(=O)N[C@@H]1C(=O)N2C(C(=O)[O-])=C(Sc3nc(-c4cc[n+](C)cc4)cs3)CS[C@H]12)c1nsc(N)n1 [Ceftaroline] | ≥ 128 µg/mL | ≥ 128 µg/mL | ≥ 128 µg/mL | ≥ 128 µg/mL |  |  |  |  | 
CO/N=C(\C(=O)N[C@@H]1C(=O)N2C(C(=O)O)=C(CSc3nc(=O)c(=O)[nH]n3C)CS[C@H]12)c1csc(N)n1 [Ceftriaxone] | ≥ 128 µg/mL | ≥ 128 µg/mL | ≥ 128 µg/mL | ≥ 128 µg/mL |  |  |  |  | 
O=C(N[C@H](CO)[C@H](O)c1ccc([N+](=O)[O-])cc1)C(Cl)Cl [Chloramphenicol] | ≥ 32 µg/mL | ≥ 32 µg/mL | ≥ 32 µg/mL | ≥ 32 µg/mL |  | R | R | R | R
CN[C@H]1C(=O)N[C@@H]2Cc3ccc(cc3)Oc3cc4cc(c3O[C@@H]3O[C@H](C(=O)O)[C@@H](O)[C@H](O)[C@H]3NC(=O)CCCCCCCCC(C)C)Oc3ccc(cc3Cl)[C@@H](O)[C@@H]3NC(=O)[C@H](NC(=O)[C@@H]4NC(=O)[C@@H](NC2=O)c2cc(cc(O)c2Cl)Oc2cc1ccc2O)c1ccc(O)c(c1)-c1c(O[C@H]2O[C@H](CO)[C@@H](O)[C@H](O)[C@@H]2O)cc(O)cc1[C@@H](C(=O)NCCCN(C)C)NC3=O [Dalbavancin] |  |  |  |  | ≥4 µg/mL |  |  |  | 

Now from value to molecule, other results behind:

MIC [1] | MIC [2] | MIC [3] | MIC [4] | MIC | Structure (SMILES) | Interpretive Category [5] | Interpretive Category [6] | Interpretive Category [7] | Interpretive Category [8]
> 8 µg/mL | > 8 µg/mL | > 8 µg/mL | > 8 µg/mL |  | Nc1nc(-n2cc(C(=O)O)c(=O)c3cc(F)c(N4CC(O)C4)c(Cl)c32)c(F)cc1F [Delafloxacin] | R | R | R | R
≥ 8 µg/mL | ≥ 8 µg/mL | ≥ 8 µg/mL | ≥ 8 µg/mL |  | CC[C@H]1OC(=O)[C@H](C)[C@@H](O[C@H]2C[C@@](C)(OC)[C@@H](O)[C@H](C)O2)[C@H](C)[C@@H](O[C@@H]2O[C@H](C)C[C@H](N(C)C)[C@H]2O)[C@](C)(O)C[C@@H](C)C(=O)[C@H](C)[C@@H](O)[C@]1(C)O [Erythromycin] | R | R | R | R
64 µg/mL | 64 µg/mL | 64 µg/mL | 64 µg/mL |  | C[C@@H]1O[C@@H]1P(=O)(O)O [Fosfomycin] | S | S | S | S
≤ 500 µg/mL | ≤ 500 µg/mL | ≤ 500 µg/mL | ≤ 500 µg/mL |  | CNC(C)C1CCC(N)C(OC2C(N)CC(N)C(OC3OCC(C)(O)C(NC)C3O)C2O)O1 (centres unmarked) [Gentamicin] | S | S | S | S
1 µg/mL | 2 µg/mL | 1 µg/mL | 2 µg/mL |  | C=C[C@]1(C)C[C@@H](OC(=O)CS[C@@H]2CC[C@@H](N)C[C@H]2O)[C@]2(C)[C@H](C)CC[C@]3(CCC(=O)[C@H]32)[C@@H](C)[C@@H]1O [Lefamulin] |  |  |  | 
≥ 8 µg/mL | ≥ 8 µg/mL | ≥ 8 µg/mL | ≥ 8 µg/mL |  | C[C@H]1COc2c(N3CCN(C)CC3)c(F)cc3c(=O)c(C(=O)O)cn1c23 [Levofloxacin] | R | R | R | R
≥ 128 µg/mL | ≥ 128 µg/mL | ≥ 128 µg/mL | ≥ 128 µg/mL |  | O=C1CN(/N=C/c2ccc([N+](=O)[O-])o2)C(=O)N1 [Nitrofurantoin] | R | R | R | R
